These results are taken from paper PMC12210912, “Pharmacologic properties and inhibitory activity of 6-azasteroids against Mycobacterium leprae in vivo and in vitro” (Microbiology Spectrum, 2025).

Series [1] relates to HepG2 cells. The settings on record: cited from earlier work.
Series [2] is described as follows: stability in human liver microsomes. The settings on record: both sexes, human liver microsomes, pH 7.4, 1 μM, HLM 0.5 mg/mL, 37°C, 1 h, mean of duplicates, read-out: HLM stability t1/2. The format is in vitro ADME. On the procedure:
Experiments were performed by Pharmaron, Inc., China. […] Negative control samples were prepared by replacing the NADPH solution with ultrapure H2O. The negative controls were used to exclude the confounding variable of test compound instability. Experiments involving NADPH were carried out in duplicate. Negative controls were prepared in singlet. Aliquots (90 µL) were taken at 0, 15, 30, 45, and 60 min of incubation. The microsomal reaction in each aliquot was stopped by the addition of four volumes of cold acetonitrile containing internal standards (100 nM alprazolam, 200 nM imipramine, 200 nM labetalol, and 2 µM ketoprofen). The samples were centrifuged at 3,220 × g for 40 min, and an aliquot (90 µL) of the supernatant was mixed with 90 µL of ultrapure H2O. The resulting mixture was used for liquid chromatography–tandem mass spectrometry (LC-MS/MS) analysis (Shimadzu and SCIEX Triple Quad 4500). Peak areas were determined from extracted ion chromatograms. A slope, k, was determined by linear regression analysis of a plot of the natural logarithm of the remaining percentage of the parent drug versus incubation time. The in vitro t1/2 (min) was determined from the slope: in vitro t1/2=−(0.693/k) In vitro t1/2 (min, mean of duplicate determinations) was converted to in vitro intrinsic clearance (in vitro Clint, μL/(min·µg protein)) by means of the following equation : in vitro Clint=(0.693/t1/2)×(volume of incubation (μL)/amount of protein (μg))

Series [3] has as its system M. leprae. The series can be described thus: Shepard's mouse footpad model: bacilli count and molecular viability. The settings on record: Balb/c mice, 1 month, vehicle median 8.110 × 10^4. The format is in vivo, Mycobacterium leprae. The procedure:
Animal experimentation was conducted under approval by the ILSL ethical committee ([…] 02/19). Balb/c female mice with 8-week-old were inoculated with 5 × 10^3 live M. leprae bacilli, strain Thai-53, in both hind footpads, as previously described for the Shepard's model ([25]). Eight groups were tested in the experiment: (i) M. leprae control group (n = 5) inoculated with M. leprae and no additional treatment; (ii) vehicle control group (n = 4) inoculated with M. leprae and treatment with vehicle of the drugs; (iii) regular rifampicin treatment, 10 mg/Kg dose; […] (v) compound 2 treatment (n = 4), 50 mg/kg dose; […] One month after inoculation, mice from the control group were euthanized and the hind footpad was collected to assess the establishment of the infection by bacillary enumeration. At that time point, vehicle or drug treatment was started for the remaining groups. All compounds were administrated by gavage, rifampicin was administered weekly, and the compounds were administered daily (excluding weekends) for 1 month (20 doses). Mice were euthanized 6 h after administration of the last dose, and blood was collected in heparin-coated tubes by cardiac puncture for blood enzyme evaluation and compound 5 measurement by LC/MS in the plasma. The infected hind footpads from each group of mice were excised, homogenized and bacilli enumerated in a 100 μL aliquot as previously described ([26]). The remaining homogenate was centrifuged at 12,000 × g for 15 min, the supernatant was discarded, and the pellet was suspended in 750 μL of RNA later solution (Thermo Fisher Scientific). The homogenized tissue pellet was incubated at 4°C for 16 h and stored at -80°C until determination of M. leprae viability was performed by RT-qPCR ([27], [28]). […] RNA and DNA extractions were performed as previously described ([10], [27]). RNA samples were treated with the Turbo DNA-free kit (Thermo Fisher Scientific), and 1,000 ng of DNAse-treated RNA was then used to synthesize the cDNA using the GoScript kit (Promega, USA).

Take `C[C@]12CCC3C(CN(CCCF)C4CC(=O)CC[C@]34C)C1CCC2C(=O)Nc1cc(C(F)(F)F)ccc1C(F)(F)F` (some centres unmarked) [Compound 3]: in series [1], the IC50 was over 100 µM. In addition, in series [2], the half-life at 1 µM worked out at 0.75 h.
For `C[C@]12CCC3C(CN(CCC(F)(F)F)C4CC(=O)CC[C@]34C)C1CCC2C(=O)Nc1cc(C(F)(F)F)ccc1C(F)(F)F` (some centres unmarked) [Compound 4], in series [1], the IC50 is over 100 µM. Also, the half-life at 1 µM in series [2] came out at 1.05 h.
For `CCCN1CC2C3CCC(C(=O)NC(c4ccc(F)cc4)c4ccc(F)cc4)[C@@]3(C)CCC2[C@@]2(C)CCC(=O)C=C12` (some centres unmarked) [Compound 6], the 50% inhibitory concentration (IC50) in series [1] is over 100 µM. Besides, in series [2], the half-life at 1 µM turned out to be 5.62 h.
Take `CO[C@H]1/C=C/O[C@@]2(C)Oc3c(C)c(O)c4c(O)c(c(/C=N/N5CCN(C)CC5)c(O)c4c3C2=O)NC(=O)/C(C)=C\C=C\[C@H](C)[C@H](O)[C@@H](C)[C@@H](O)[C@@H](C)[C@H](OC(C)=O)[C@@H]1C` [rifampicin, reference compound]: the entries for the “bacillary load in footpad, median” value in series [3] (rifampicin 10 mg/kg weekly by gavage) and in series [3] (sub-inhibitory rifampicin 1 mg/kg weekly by gavage) were 0.438 × 10^4 and 7.890 × 10^4, respectively.
